{"source": "patent US20100099731A1", "about": "“Use of Endothelial Interrupters in the Treatment of Neurodegenerative Diseases” (Texas Tech University System, priority 2008, published 2010)", "key": {"[1]": {"system": "cultured brain endothelial cells", "test": "IL-1β and TNFα expression in brain endothelial cells treated with TGF-β, ELISA and western blot", "assay_type": "cell-based", "settings": "vs untreated endothelial cells", "text": "Cerebrovascular TGF-β contributes to inflammation in the AD brain. TGF-β plays a central role in the response of the brain to injury and is increased in the brain in AD. In this study, we determined whether expression of TGF-β was abnormal in the microvasculature in AD and whether TGF-β affected vascular production of pro-inflammatory cytokines, IL-1β and TNFα. Results from western blot analysis and ELISA indicated a higher level of TGF-β in AD vessels compared to controls. To determine whether TGF-β affects vascular release of inflammatory factors, cultured brain endothelial cells were treated with TGF-β and levels of IL-1β and TNFα determined. […] Studies have shown that TGF-β mediated signaling is critical to controlling the “angiogenic switch”."}, "[2]": {"settings": "approved treatments for AD; cited from earlier work"}, "[3]": {"test": "In vivo cognition with acetaminophen", "settings": "in vivo work"}, "[4]": {"system": "rat brain endothelial cells", "test": "Cell viability (MTT) of brain endothelial cells challenged with menadione", "settings": "acetaminophen pretreatment, then 25 μM menadione 2-3 h; p<0.001 vs cells without acetaminophen", "quoted_text": "Cell viability was determined with MTT assay. Number of viable cells in untreated cells (control) was defined as 100%. Data are mean±SD of 3 separate experiments."}, "[5]": {"system": "AD transgenic mouse APPSWE 2576", "test": "Radial arm maze, AD transgenic mice treated with Sunitinib malate", "assay_type": "in vivo", "settings": "Sunitinib malate 40 mg/kg daily in diet; vs untreated AD mice receiving vehicle; p<0.05"}, "[6]": {"system": "Endothelial cells", "test": "Menadione-mediated TNF-α release from endothelial cells, indirect ELISA", "assay_type": "cell-based", "settings": "500 nM Sunitinib malate 4 h prior to (Pre), simultaneously (Co) or after (Post) 4 h menadione 25 μM"}, "[7]": {"system": "Endothelial cells", "test": "Menadione-induced MMP-9 release from endothelial cells, indirect ELISA", "assay_type": "cell-based"}, "[8]": {"system": "brain-derived endothelial cells (EC150)", "test": "MMP-9 release from brain endothelial cells, indirect ELISA", "assay_type": "cell-based", "settings": "0-500 nM Sunitinib malate, 4 h; p<0.001 vs cells without drug"}, "[9]": {"system": "Rats", "test": "Intracerebroventricular thrombin infusion in rats, apolipoprotein-E levels", "assay_type": "in vivo, rat", "settings": "thrombin 100 nM, 0.25 microl/hr, 28 days, i.c.v.; vs vehicle, p<0.001", "text": "Chronic thrombin exposure results in an increase in apolipoprotein-E levels. Studies have shown that individuals with both a history of traumatic brain injury and inheritance of apolipoprotein E-4 (ApoE4) allele are associated with a poor neurologic outcome and an increased risk for Alzheimer's disease. We assessed the hypothesis that thrombin released during brain injury causes an increase in apolipoprotein-E levels and such increase in the levels of apolipoprotein-E4 isoform may have amyloidogenic effects. Rats received either thrombin (100 nM, 0.25 microl/hr, 28 days) or vehicle via intracerebroventricular infusion. […] Such increase in Apolipoprotein-E4 isoform facilitates beta-amyloid deposition and cognitive deficits (Reference, item # 9)."}, "[10]": {"system": "cultured brain endothelial cells", "test": "TIMP expression in cultured brain endothelial cells", "assay_type": "cell-based", "text": "Angiogenic proteins are expressed by brain blood vessels in AD. Data are emerging to support the idea that mediators of angiogenesis are found in the AD brain. The objective of this study is to compare the expression of the angiogenic mediator's vascular endothelial growth factor (VEGF), angiopoietin, and matrix metalloproteinases (MMPs) in the microcirculation of AD patients and age-matched controls. […] AD-derived microvessels also release higher levels of MMP-2 and MMP-9 compared to controls. […] In this regard we find high levels of the tissue inhibitor of matrix metalloproteinases-1 (TIMP-1) in AD, but not control vessels."}, "[11]": {"system": "Rat neuronal cortical cell cultures", "settings": "thrombin 100 nM or SNP 10 μM, 24 h"}, "[12]": {"system": "Rats", "test": "Intracerebroventricular thrombin infusion in rats, radial eight-arm maze and neuropathology", "assay_type": "in vivo, rat", "method": "Thrombin, a mediator of neurotoxicity and memory impairment. Thrombin has been found in neuritic plaques in AD. Also, traumatic brain injury, where neurons are exposed to high thrombin levels is associated with an increased incidence of AD. Our objective was to determine the effects of thrombin administered in vivo on cognitive function and neuropathology. Rats were trained using a radial eight-arm maze and then thrombin (25 or 100 nM, […], 28 days) or vehicle was delivered via intra cerebroventricular infusion. […] Thrombin-induced changes in cognitive function and ventricular enlargement were inhibited by hirudin."}, "[13]": {"system": "cultured brain endothelial cells", "test": "HIF1-α expression in cultured brain endothelial cells", "assay_type": "cell-based", "text": "Thrombin and inflammatory proteins are elevated in Alzheimer's disease microvessels: Implications for disease pathogenesis. […] The objective of this study is to determine whether levels of neurotoxic (thrombin) and inflammatory proteins (IL-8; integrins αvβ3 and αvβ5) are altered in microvessels isolated from AD patients compared to levels in vessels obtained from non-demented age-matched controls. We also evaluate expression, in AD and control microvessels, of the transcription factor hypoxiainducible factor 1-α (HIF1-α), which regulates pro-inflammatory gene expression, and the regulation of HIF1-α expression by thrombin in cultured brain endothelial cells."}, "[14]": {"system": "Rats", "test": "Infusion of human apolipoprotein-E4 into rats", "assay_type": "in vivo, rat", "settings": "0.6 ng/hr, i.c.v., 56 days"}, "[15]": {"target": "thrombin (Homo sapiens, UniProt P00734)", "test": "ApoE4 fragment generation by endothelial cell conditioned media, western blot", "assay_type": "biochemical", "settings": "conditioned medium incubated with apoE4 for 24 h", "method": "Injured endothelial cells release thrombin and generate neurotoxic apolipoprotein E fragments. The objective of this study was to determine if injured brain endothelial cells could be a source of thrombin and neurotoxic apoE fragments. Brain endothelial cells were injured by oxidant and/or inflammatory stress. This was accomplished by incubating cultured endothelial cells with either, sodium nitroprusside (SNP), inflammatory cocktail (LPS, […], IL-6, IFN-γ, TNFα) or both for 24 h. The conditioned medium was then (a) analyzed for thrombin using a chromogenic thrombin activity assay, (b) incubated with apoE4 for 24 h and then analyzed by western blot for detection of apoE4 fragments, or (c) incubated with apoE4 and added to neuronal cultures for 24 h. […] This pattern was consistent with that observed using purified thrombin and was inhibited by the thrombin inhibitor hiruidin."}, "[16]": {"settings": "100 nM thrombin, 0.25 μg/h, 28 days, intra cerebroventricular infusion"}, "[17]": {"settings": "rats, thrombin intra cerebroventricular infusion"}}, "note": "Entries after “also recorded” stand apart in the source; their conditions may differ."}
{"compound": "TGF-β", "values": [{"measurement": "endothelial expression of IL-1β and TNFα", "setting": "[1]", "result": "robust endothelial expression of these factors"}]}
{"compound": "CC12CC3CC(C)(C1)CC(N)(C3)C2", "note": "[Memantine]", "values": [{"measurement": "Side Effects", "setting": "[2]", "result": "Headache, constipation."}]}
{"compound": "CC(=O)Nc1ccc(O)cc1", "note": "[acetaminophen, 4′-hydroxyacetanilide]", "values": [{"measurement": "cognition", "setting": "[3]", "result": "improved cognition"}, {"measurement": "cell survival (MTT)", "setting": "[4]", "result": "significant increase in cell survival; also recorded: Cell survival increases significantly"}]}
{"compound": "CCN(CC)CCNC(=O)c1c(C)[nH]c(/C=C2\\C(=O)Nc3ccc(F)cc32)c1C", "note": "[Sunitinib malate, Butanedioic acid, hydroxy-, (2S)-, compound with N[2-(diethylamino)ethyl]-5-[(Z)-(5-fluoro-1,2-dihydro-2-oxo-3H-indol-3-ylidine)methyl]-2,4-dimethyl-1H-pyrrole-3-carboxamide (1:1)]", "values": [{"measurement": "cognitive performance: total number of arm entries to complete the 8 arm radial arm maze", "setting": "[5]", "result": "progressively require fewer arm entries to complete an 8 arm radial arm maze; also recorded: perform significantly (p<0.05) better than AD mice not receiving the drug"}, {"measurement": "menadione-mediated release of TNF-α", "setting": "[6]", "result": "decreased release of both MMP-9 (FIG. 4) and TNFα; also recorded: decreased menadione-mediated release of TNF-α"}, {"measurement": "menadione-induced release of MMP-9", "setting": "[7]; 500 nM Sunitinib malate 4 h prior to (Pre), simultaneously (Co) or after (Post) 4 h menadione 25 μM", "result": "decreased release of both MMP-9; also recorded: significantly decreased release of MMP-9"}, {"measurement": "release of matrix metalloproteinase-9 (MMP-9)", "setting": "[8]", "result": "significantly decreased release of matrix metalloproteinase-9 (MMP-9)"}]}
{"compound": "thrombin", "values": [{"measurement": "apolipoprotein-E levels in hippocampus", "setting": "[9]", "result": "increased apolipoprotein-E levels in hippocampus"}, {"measurement": "TIMP-1 expression", "setting": "[10]", "result": "up regulation of TIMP-1"}, {"measurement": "cyclin D1 mRNA expression", "setting": "[11]", "result": "increase in cyclin D1 expression"}, {"measurement": "neuronal apoptosis (nucleosome ELISA)", "setting": "[11]", "result": "evoke neuronal cell death"}, {"measurement": "cognitive function", "setting": "[12]; [16]", "result": "cognitive impairments including deficits in reference memory and an increase in task latency"}, {"measurement": "neuropathology", "setting": "[12]; [16]", "result": "enlargement of cerebral ventricles, an increased number of TUNEL-positive cells, astrogliosis, and an increase in the immunoreactivity for phosphorylated neurofilament, and apolipoprotein-E fragments"}, {"measurement": "HIF1-alpha expression", "setting": "[13]", "result": "increased expression of HIF1-alpha"}]}
{"compound": "CC1=CC(=O)c2ccccc2C1=O", "note": "[menadione]", "values": [{"measurement": "release of MMP-9 and TNFα", "setting": "[7]; brain endothelial cells exposed to menadione", "result": "increased release of both MMP-9 and the inflammatory cytokine TNFα"}]}
{"compound": "ApoE4: human apolipoprotein-E4 isoform infused i.c.v. into rats", "values": [{"measurement": "beta-amyloid deposition and GFAP-positive astrocytes", "setting": "[14]", "result": "beta-amyloid deposition and increased the number of GFAP-positive astrocytes"}, {"measurement": "spatial memory", "setting": "[14]", "result": "significant spatial memory deficits"}]}
{"compound": "hirudin", "values": [{"measurement": "generation of apoE4 fragments (20-29 kDa) by endothelial cell conditioned media", "setting": "[15]", "result": "inhibited"}, {"measurement": "thrombin-induced changes in cognitive function", "setting": "[12]; [17]", "result": "inhibited"}, {"measurement": "thrombin-induced ventricular enlargement", "setting": "[12]; [17]", "result": "inhibited"}]}
